Measurements reported in PMC9604775, “Bioactive Peptides from Skipjack Tuna Cardiac Arterial Bulbs: Preparation, Identification, Antioxidant Activity, and Stability against Thermal, pH, and Simulated Gastrointestinal Digestion Treatments” (Marine Drugs, 2022).
Read-outs that look alike come from different tables or passages of the source. Where a SMILES comes first, the peptide text is derived from it. Where no end group is shown, it is not given here.

Tests used:
[1] = Stability to simulated gastrointestinal digestion (DPPH· scavenging activity); format: in vitro ADME; details: two-stage model: pepsin 120 min then trypsin 120 min; 0 to 240 min; peptide 2.0 mg/mL; read-out DPPH· scavenging activity
Experimental: The stability of TCP1 to TCP11 from tuna cardiac arterial bulbs was determined according to the previous method with a slight modification. The DPPH· scavenging activity (%) of TCP1 to TCP11 at 2.0 mg/mL were measured at the set conditions to evaluate their stability.
The thermostability of TCP1 to TCP11 at 20, 40, 60, 80, or 100 °C for 60 min was analyzed in water bath. The influences of pH values of 3, 5, 7, 9, or 11 were employed to estimate the acid and alkali stability properties of TCP1 to TCP11 at 25 °C, and the detecting time was set to 60, 120, and 180 min, respectively. The influence of simulate GI digestion on the stability of TCP1 to TCP11 was evaluated by the two-stage digestion model. In short, APs (TCP1 to TCP11) were separately treated with pepsin for 120 min and trypsin for 120 min.

[2] = design: method as in 10 sources, ref 24 = [24]; PMID 35127795; doi:10.3389/fnut.2021.813780; 24. Wang J. Wang Y.M. Li L.Y. Chi C.F. Wang B. Twelve antioxidant peptides from protein hydrolysate of Skipjack tuna ( Katsuwonus pelamis ) roe prepared by flavourzyme: Purification, sequence identifi ||| ref 43 = [43]; doi:10.1016/j.foodres.2010.02.009; 43. You L. Zhao M. Regenstein J.M. Ren J. Purification and identification of antioxidant peptides from loach ( Misgurnus anguillicaudatus ) protein hydrolysate by consecutive chromatography and electr ||| ref 44 = [44]; doi:10.1016/j.jff.2015.03.045; 44. Chi C.F. Hu F.Y. Wang B. Li T. Ding G.F. Antioxidant and anticancer peptides from protein hydrolysate of blood clam ( Tegillarca granosa ) muscle J. Funct. Foods 2015 15 301 313 10.1016/j.jff.2015 ||| ref 42 = [42]; PMID 35621976; doi:10.3390/md20050325; 42. Sheng Y. Qiu Y.T. Wang Y.M. Chi C.F. Wang B. Novel antioxidant collagen peptides of Siberian sturgeon ( Acipenser baerii ) cartilages: The preparation, characterization, and cytoprotection of H 2 ||| ref 45 = [45]; PMID 23411302; doi:10.1016/j.foodchem.2012.12.002; 45. Wang B. Li L. Chi C.F. Ma J.H. Luo H.Y. Xu Y.F. Purification and Characterization of a novel antioxidant peptide derived from blue mussel ( Mytilus edulis ) protein hydrolysate Food Chem. 2013 138 ||| ...; details: literature value; cited from earlier work
[3] = design: method as in 5 sources, ref 41 = [41]; doi:10.1016/j.procbio.2022.01.008; 41. Wang Y.M. Li X.Y. Wang J. He Y. Chi C.F. Wang B. Antioxidant peptides from protein hydrolysate of skipjack tuna milt: Purification, identification, and cytoprotection on H 2 O 2 damaged human umbi ||| ref 44 = [44]; doi:10.1016/j.jff.2015.03.045; 44. Chi C.F. Hu F.Y. Wang B. Li T. Ding G.F. Antioxidant and anticancer peptides from protein hydrolysate of blood clam ( Tegillarca granosa ) muscle J. Funct. Foods 2015 15 301 313 10.1016/j.jff.2015 ||| ref 20 = [20]; doi:10.1016/j.jff.2014.10.027; 20. Chi C.F. Wang B. Wang Y.M. Zhang B. Deng S.G. Isolation and characterization of three antioxidant peptides from protein hydrolysate of bluefin leatherjacket ( Navodon septentrionalis ) heads J. Fu ||| ref 48 = [48]; PMID 31035632; doi:10.3390/md17050251; 48. Yang X.R. Qiu Y.T. Zhao Y.Q. Chi C.F. Wang B. Purification and characterization of antioxidant peptides derived from protein hydrolysate of the marine bivalve mollusk Tergillarca granosa Mar Drugs ||| ref 39 = [39]; PMID 31430875; doi:10.3390/antiox8080318; 39. Zhang L. Zhao G.X. Zhao Y.Q. Qiu Y.T. Chi C.F. Wang B. Identification and active evaluation of antioxidant peptides from protein hydrolysates of skipjack tuna ( Katsuwonus pelamis ) head Antioxida; details: literature value; cited from earlier work
H2O2-damaged HepG2 cells = format: cell-based
Experimental: The assay was carried out according to the method described by Hu et al., and the H2O2 concentration of 300 µM was applied to establish the oxidative damage model of HepG2 cells. Briefly, the HepG2 cells with density of 1 × 10^5 cells/well were incubated in a 96-well plate for 24 h. The supernatant in the 96-well plate was aspirated and 100 µL of peptide samples (50.0, 100.0, or 200.0 µM, respectively) were added into the protection groups respectively for incubating 8 h. After removing peptides, H2O2 with the final concentration of 300 µM was joined in the protection and model groups. After incubating for 24 h, the wells were rinsed twice with PBS and the MTT with the final concentration of 0.5 mg/mL was added into. After incubating for 4 h, the formazan crystals formed by active cells were soluble in 150 µL of DMSO and OD570 nm of the solution was determined. Finally, the cell viability was calculated using the equation: Cell viability = (ODsample/ODcontrol) × 100%(2)

[4] = design: method as in 10 sources, ref 24 = [24]; PMID 35127795; doi:10.3389/fnut.2021.813780; 24. Wang J. Wang Y.M. Li L.Y. Chi C.F. Wang B. Twelve antioxidant peptides from protein hydrolysate of Skipjack tuna ( Katsuwonus pelamis ) roe prepared by flavourzyme: Purification, sequence identifi ||| ref 55 = [55]; doi:10.1016/j.jff.2016.06.008; 55. Pan X. Zhao Y.Q. Hu F.Y. Wang B. Preparation and identification of antioxidant peptides from protein hydrolysate of skate (Raja porosa) cartilage J. Funct. Foods 2016 25 220 230 10.1016/j.jff.2016 ||| ref 48 = [48]; PMID 31035632; doi:10.3390/md17050251; 48. Yang X.R. Qiu Y.T. Zhao Y.Q. Chi C.F. Wang B. Purification and characterization of antioxidant peptides derived from protein hydrolysate of the marine bivalve mollusk Tergillarca granosa Mar Drugs ||| ref 15 = [15]; doi:10.1016/j.jff.2018.06.014; 15. Zhao W.H. Luo Q.B. Pan X. Chi C.F. Sun K.L. Wang B. Preparation, identification, and activity evaluation of ten antioxidant peptides from protein hydrolysate of swim bladders of miiuy croaker ( Mi ||| ref 47 = [47]; PMID 35531284; doi:10.3389/fmicb.2022.791248; 47. Sun K. Gao M. Wang Y.Z. Li X.R. Wang P. Wang B. Antioxidant peptides from protein hydrolysate of marine red algae Eucheuma cottonii : Preparation, identification, and cytoprotective mechanisms on ||| ...; details: literature value; cited from earlier work
[5] = design: method as in 10 sources, ref 51 = [51]; doi:10.1016/j.jff.2015.04.042; 51. Cai L. Wu X. Zhang Y. Li X. Ma S. Li J. Purification and characterization of three antioxidant peptides from protein hydrolysate of grass carp ( Ctenopharyngodon idella ) skin J. Funct. Foods 2015 ||| ref 42 = [42]; PMID 35621976; doi:10.3390/md20050325; 42. Sheng Y. Qiu Y.T. Wang Y.M. Chi C.F. Wang B. Novel antioxidant collagen peptides of Siberian sturgeon ( Acipenser baerii ) cartilages: The preparation, characterization, and cytoprotection of H 2 ||| ref 24 = [24]; PMID 35127795; doi:10.3389/fnut.2021.813780; 24. Wang J. Wang Y.M. Li L.Y. Chi C.F. Wang B. Twelve antioxidant peptides from protein hydrolysate of Skipjack tuna ( Katsuwonus pelamis ) roe prepared by flavourzyme: Purification, sequence identifi ||| ref 48 = [48]; PMID 31035632; doi:10.3390/md17050251; 48. Yang X.R. Qiu Y.T. Zhao Y.Q. Chi C.F. Wang B. Purification and characterization of antioxidant peptides derived from protein hydrolysate of the marine bivalve mollusk Tergillarca granosa Mar Drugs ||| ref 43 = [43]; doi:10.1016/j.foodres.2010.02.009; 43. You L. Zhao M. Regenstein J.M. Ren J. Purification and identification of antioxidant peptides from loach ( Misgurnus anguillicaudatus ) protein hydrolysate by consecutive chromatography and electr ||| ...; details: literature value; cited from earlier work
[6] = peptide 200 μmol/L, 8 h pre-incubation, then 300 µM H2O2 for 24 h, MTT, model group 50.64 ± 2.43%, mean ± SD, n = 3

Compound | Declined percentage of DPPH· scavenging activity after simulated GI digestion [1] | EC50 ABTS^+· [3] | other results
GEQSN [TCP2, Gly-Glu-Gln-Ser-Asn] | 4.49% |  | 
GEEGD [TCP5, Gly-Glu-Glu-Gly-Asp] | 4.25% |  | 
VRDQY [literature antioxidant peptide from tuna milts] |  | 1040 µg/mL | EC50 DPPH· [2]: 880 µg/mL
NCCCC[C@H](NC(=O)[C@H](CCCCN)NC(=O)[C@@H]1CCCN1)C(=O)O [TCP3, Pro-Lys-Lys] (H-Pro-Lys-Lys-OH) |  |  | viability of H2O2-damaged HepG2 cells (H2O2-damaged HepG2 cells; 8 h, 200 μmol/L): 81.26 ± 1.86%
GEGQR [TCP8, Gly-Glu-Gly-Gln-Arg] | 4.21% |  | 
GPGLM [TCP9, Gly-Pro-Gly-Leu-Met] |  |  | viability of H2O2-damaged HepG2 cells (H2O2-damaged HepG2 cells; 8 h, 200 μmol/L): 78.54 ± 3.06%
GVPLT [literature antioxidant peptide from Navodon septentrionalis heads] |  | 3124 µg/mL | 
GDRGD [TCP11, Gly-Asp-Arg-Gly-Asp] | 2.65% |  | 
SVTEV [literature antioxidant peptide from tuna milts] |  | 1020 µg/mL | EC50 DPPH· [2]: 890 µg/mL
YEGGD [TCP6, Tyr-Glu-Gly-Gly-Asp] |  |  | viability of H2O2-damaged HepG2 cells (H2O2-damaged HepG2 cells; [6]): 74.68 ± 1.69%
GHHAAA [literature antioxidant peptide from tuna milts] |  | 1120 µg/mL | 
CC(=O)N[C@@H](CS)C(=O)O [N-Acetyl-L-Cysteine (NAC), N-Acetyl-L-Cysteine] |  |  | viability of H2O2-damaged HepG2 cells (H2O2-damaged HepG2 cells; [6]): 90.06 ± 3.16%
YGPM [literature antioxidant peptide from Scomberomorous niphonius skins] |  | 820 µg/mL | EC50 O2^−· [4]: 730 µg/mL
CC(C)C[C@H](NC(=O)CN)C(=O)N[C@@H](CC(N)=O)C(=O)O [TCP10, Gly-Leu-Asn] (H-Gly-Leu-Asn-OH) | 3.15% |  | 
WPPD [literature antioxidant peptide from blood cockle (T. granosa)] |  | 540 µg/mL | EC50 DPPH· [2]: 360 µg/mL; EC50 HO· [5]: 380 µg/mL; EC50 O2^−· [4]: 460 µg/mL
